This note sets out measurements from patent US20110280898A1, “INHBB EPITOPE PEPTIDES AND VACCINES CONTAINING THE SAME” (Oncotherapy Science, Inc., priority 2008, published 2011).

Test [1] relates to peptide-pulsed T2 cells. The test can be described thus: IFN-gamma ELISPOT assay on CTLs induced with INHBB-derived peptides. The note with it: target cells pulsed with the peptide vs control not pulsed, after 3rd round of stimulation, day 21. In kind it is cell-based, human. From the text: Monocyte-derived dendritic cells (DCs) were used as antigen-presenting cells (APCs) to induce cytotoxic T lymphocyte (CTL) responses against peptides presented on human leukocyte antigen (HLA). DCs were generated in vitro as described elsewhere (Nakahara S et al., Cancer Res 2003 Jul 15, 63(14): 4112-8). Specifically, peripheral blood mononuclear cells (PBMCs) isolated from a normal volunteer (HLA-A*0201 positive) by Ficoll-Plaque (Pharmacia) solution were separated by adherence to a plastic tissue culture dish (Becton Dickinson) so as to enrich them as the monocyte fraction. The monocyte-enriched population was cultured in the presence of 1000 U/ml of granulocyte-macrophage colony-stimulating factor (GM-CSF) (R&D System) and 1000 U/ml of interleukin (IL)-4 (R&D System) in AIM-V Medium (Invitrogen) containing 2% heat-inactivated autologous serum (AS). After 7 days of culture, the cytokine-induced DCs were pulsed with 20 mcg/ml of each of the synthesized peptides in the presence of 3 mcg/ml of beta2-microglobulin for 3 hr at 37 degrees C. in AIM-V Medium. The generated cells appeared to express DC-associated molecules, such as CD80, CD83, CD86 and HLA class II, on their cell surfaces (data not shown). These peptide-pulsed DCs were then inactivated by Mitomycin C (MMC) (30 mcg/ml for 30 min) and mixed at a 1:20 ratio with autologous CD8+ T cells, obtained by positive selection with CD8 Positive Isolation Kit (Dynal). These cultures were set up in 48-well plates (Corning); each well contained 1.5×10^4 peptide-pulsed DCs, 3×10^5 CD8+ T cells and 10 ng/ml of IL-7 (R&D System) in 0.5 ml of AIM-V/2% AS medium. Three days later, these cultures were supplemented with IL-2 (CHIRON) to a final concentration of 20 IU/ml. On day 7 and 14, the T cells were further stimulated with the autologous peptide-pulsed DCs. The DCs were prepared each time by the same way described above. CTL was tested against peptide-pulsed T2 cells after the 3rd round of peptide stimulation on day 21 (Tanaka H et al., Br J Cancer 2001 Jan. 5, 84(1): 94-9; Umano Y et al., Br J Cancer 2001 Apr. 20, 84(8): 1052-7; Uchida N et al., Clin Cancer Res 2004 Dec. 15, 10(24): 8577-86; Suda T et al., Cancer Sci 2006 May, 97(5): 411-9; Watanabe T et al., Cancer Sci 2005 Aug, 96(8): 498-506).
Specifically, peptide-pulsed T2 (1×10^4/well) was prepared as stimulator cells. Cultured cells in 48 wells were used as responder cells. IFN-gamma ELISPOT assay and IFN-gamma ELISA assay were performed under manufacture procedure.

The subject of test [2] is peptide-pulsed T2 cells. The test can be described thus: IFN-gamma ELISA assay on expanded CTL line. Type of test: cell-based, human. The note with it: CTL line expanded from positive well #7, peptide-pulsed target vs target without peptide pulse. From the text:
Monocyte-derived dendritic cells (DCs) were used as antigen-presenting cells (APCs) to induce cytotoxic T lymphocyte (CTL) responses against peptides presented on human leukocyte antigen (HLA). DCs were generated in vitro as described elsewhere (Nakahara S et al., Cancer Res 2003 Jul 15, 63(14): 4112-8). Specifically, peripheral blood mononuclear cells (PBMCs) isolated from a normal volunteer (HLA-A*0201 positive) by Ficoll-Plaque (Pharmacia) solution were separated by adherence to a plastic tissue culture dish (Becton Dickinson) so as to enrich them as the monocyte fraction. The monocyte-enriched population was cultured in the presence of 1000 U/ml of granulocyte-macrophage colony-stimulating factor (GM-CSF) (R&D System) and 1000 U/ml of interleukin (IL)-4 (R&D System) in AIM-V Medium (Invitrogen) containing 2% heat-inactivated autologous serum (AS). After 7 days of culture, the cytokine-induced DCs were pulsed with 20 mcg/ml of each of the synthesized peptides in the presence of 3 mcg/ml of beta2-microglobulin for 3 hr at 37 degrees C. in AIM-V Medium. The generated cells appeared to express DC-associated molecules, such as CD80, CD83, CD86 and HLA class II, on their cell surfaces (data not shown). […]
Background: ELISA stands for enzyme-linked immunosorbent assay.

Entries after “also recorded” stand apart in the source; their conditions may differ.

In the case of “INHBB-A02-10-256: 10-mer HLA-A*0201 binding epitope peptide derived from INHBB (QELAVVPVFV)”, in the test with peptide-pulsed T2 cells [1], the “IFN-gamma production of peptide-induced CTLs (specific CTL activity)” value (“IFN-gamma production … (specific CTL activity)” below) is “potent IFN-gamma production as compared to the control; also recorded: potent IFN-gamma production as compared with the control”.

With “INHBB-A02-9-257: 9-mer HLA-A*0201 binding epitope peptide derived from INHBB (ELAVVPVFV)”, in the test on peptide-pulsed T2 cells [1], the “IFN-gamma production … (specific CTL activity)” value was “potent IFN-gamma production as compared to the control; also recorded: potent IFN-gamma production as compared with the control”. Turning to “INHBB-A02-9-313: 9-mer HLA-A*0201 binding epitope peptide derived from INHBB (RLIGWNDWI)”, the “IFN-gamma production … (specific CTL activity)” value in the test on peptide-pulsed T2 cells [1] was “potent IFN-gamma production as compared to the control; also recorded: potent IFN-gamma production as compared with the control”.

Regarding “INHBB-A02-9-213: 9-mer HLA-A*0201 binding epitope peptide derived from INHBB (NMVEKRVDL)”, the “IFN-gamma production … (specific CTL activity)” value in the test with peptide-pulsed T2 cells [1] is reported as “potent IFN-gamma production as compared to the control; also recorded: potent IFN-gamma production as compared with the control”.

On to “INHBB-A02-10-313: 10-mer HLA-A*0201 binding epitope peptide derived from INHBB (RLIGWNDWII)”, for which the “IFN-gamma production … (specific CTL activity)” value in the test on peptide-pulsed T2 cells [1] is on record as “potent IFN-gamma production as compared to the control; also recorded: potent IFN-gamma production as compared with the control”. The same measure, in the same setting: under “INHBB-A02-10-237: 10-mer HLA-A*0201 binding epitope peptide derived from INHBB (ALFERGERRL)” stands “potent IFN-gamma production as compared to the control; also recorded: potent IFN-gamma production as compared with the control”; under “INHBB-A02-9-139: 9-mer HLA-A*0201 binding epitope peptide derived from INHBB (RVSEIISFA)”, “potent IFN-gamma production as compared to the control; also recorded: potent IFN-gamma production as compared with the control”. Turning to “INHBB-A02-10-173: 10-mer HLA-A*0201 binding epitope peptide derived from INHBB (VVQASLWLYL)”, the “IFN-gamma production … (specific CTL activity)” value with peptide-pulsed T2 cells [1] is on record as “potent IFN-gamma production as compared to the control; also recorded: potent IFN-gamma production as compared with the control”. As for “INHBB-A02-9-174: 9-mer HLA-A*0201 binding epitope peptide derived from INHBB (VQASLWLYL)”, in the test with peptide-pulsed T2 cells [1], the “IFN-gamma production … (specific CTL activity)” value is on record as “potent IFN-gamma production as compared to the control; also recorded: potent IFN-gamma production as compared with the control”. Moreover, the “IFN-gamma production / specific CTL activity of established CTL line” value is “potent IFN-gamma production as compared with the control” with peptide-pulsed T2 cells [2] and “higher specific CTL activity against the peptide-pulsed target as compared to the activity against target without peptide pulse” with peptide-pulsed T2 cells [2] (listed as SEQ ID NO: 2). For the substance “INHBB-A02-10-85: 10-mer HLA-A*0201 binding epitope peptide derived from INHBB (RLQMRGRPNI)”, the “IFN-gamma production … (specific CTL activity)” value in the test on peptide-pulsed T2 cells [1] was “potent IFN-gamma production as compared to the control; also recorded: potent IFN-gamma production as compared with the control”.

Take “INHBB-A02-10-162: 10-mer HLA-A*0201 binding epitope peptide derived from INHBB (FISNEGNQNL)”: the “IFN-gamma production … (specific CTL activity)” value with peptide-pulsed T2 cells [1] is recorded as “potent IFN-gamma production as compared to the control; also recorded: potent IFN-gamma production as compared with the control”. On the same count and under the same terms, under “INHBB-A02-9-250: 9-mer HLA-A*0201 binding epitope peptide derived from INHBB (VQCDSCQEL)” stands “potent IFN-gamma production as compared to the control; also recorded: potent IFN-gamma production as compared with the control”. As to “INHBB-A02-10-179: 10-mer HLA-A*0201 binding epitope peptide derived from INHBB (WLYLKLLPYV)”, in the test on peptide-pulsed T2 cells [1], the “IFN-gamma production … (specific CTL activity)” value is on record as “potent IFN-gamma production as compared to the control; also recorded: potent IFN-gamma production as compared with the control”. As for “INHBB-A02-9-8: 9-mer HLA-A*0201 binding epitope peptide derived from INHBB (ALGAACLLL)”, the “IFN-gamma production … (specific CTL activity)” value in the test on peptide-pulsed T2 cells [1] was “potent IFN-gamma production as compared to the control; also recorded: potent IFN-gamma production as compared with the control”.
